From patent US7056679B2, “Target specific screening and its use for identifying target binders” (Antyra, Inc., priority 2001, dated 2006)

Assays:
E-tag antibody = experiment: ELISA analysis of phage on antibody raised against ETAG (positive control); conditions: peptide binding to E-tag antibody; phage ELISA units read at 405 nm
Procedure, shortened: (§1)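 Phage from picked clones (M13KO7 helper) bound 2 hr at room temperature to wells coated overnight at 4 °C with 500 ng/well anti-ETAG antibody or LDH, milk-blocked. Detection with HRP-anti-M13 (1:3000) and ABTS at 405 nm; positive when A405 ≥2-fold over background.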

[1] = tested on: lactate dehydrogenase (LDH); experiment: ELISA analysis of phage on LDH (irrelevant, non-specific target); type: binding; conditions: peptide binding to LDH polypeptide (non-specific binding); phage ELISA units read at 405 nm
Procedure, shortened: as §1

DGI-2 = target: T1, DGI-2 (Homo sapiens, UniProt Q15004); experiment: ELISA analysis of phage on DGI-2 polypeptide (specific binding); conditions: for DGI-2 (OD): binding to DGI-2 polypeptide (specific binding), phage ELISA units read at 405 nm; for DGI-2/LDH (OD): ratio of specific binding to non-specific binding
T1 construct: encompassed the entire DGI-2 open reading frame (ORF); His-tag of vector pIVEX2.3-MCS (inferred from the vector and from the reverse primer lacking a stop codon); made in house; host or cells: cell-free in vitro translation (Rapid Translation System RTS, Roche; E. coli lysate)
T1 sequence (Q15004 1-111): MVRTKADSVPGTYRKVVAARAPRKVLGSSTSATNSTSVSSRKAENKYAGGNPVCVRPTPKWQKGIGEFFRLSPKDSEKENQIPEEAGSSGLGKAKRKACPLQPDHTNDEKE
Procedure, shortened: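 Recombinant DGI-2 from in vitro translation, LDH (non-specific) and controls were coated at 500 ng/well and blocked with 2% milk-PBS. Phage from individual clones bound for 2 hr at room temperature, then anti-M13-HRP with ABTS was read at 405 nm; a clone counted as positive at ≥2-fold over background.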

Row | Substance | LDH (OD) [1] | DGI-2 (OD) (DGI-2) | DGI-2/LDH (OD) (DGI-2) | ETAG (OD) (E-tag antibody)
1 | TIDVARRFGYGWWDLWLDGD (DGI-2-20R-3-C3; listed as Escherichia coli) | 1.1 OD | 7.9 OD | 7.0 | 20.2 OD
2 | TANGHRYGGCGLWCKWMSGM (DGI-2-20R-4-E2; listed as Escherichia coli) | 1.1 OD | 2.7 OD | 2.5 | 18.2 OD
3 | PKDGAAFKGSDFIQGGQTVMERAPALWWRDGGGQWEAPST (DGI-2-40F-3-B72; listed as Escherichia coli) | 0.7 OD | 1.0 OD | 1.3 | 10.4 OD
4 | LSLLSVVVRSMGASAPQRQV (DGI-2-20F-3-A7; listed as Escherichia coli) | 0.9 OD | 2.1 OD | 2.4 | 7.0 OD
5 | RMYNCHYIERLYDWHAGRJLLQDPA (RMYNCHYIERLYDWHAGRILLQDPA; not fully specified; non-natural residue J; DGI-2-20C-4-E926; listed as Escherichia coli) | 1.0 OD | 2.9 OD | 3.0 | 17.4 OD
6 | GSVLERGCLEFSGFCFSLGH (DGI-2-20F-3-C1; listed as Escherichia coli) | 1.0 OD | 3.4 OD | 3.4 | 14.0 OD
7 | SRPGWCSRGTAWGFPGCSSS (DGI-2-20R-3-C4; listed as Escherichia coli) | 1.1 OD | 4.5 OD | 4.2 | 19.1 OD
8 | DDIVCLFQFCTMFCWLDMGW (DDIVCLFQFCIMFCWLDMGW; DGI-2-20F-PP-H3; listed as Escherichia coli) | 1.8 OD | 2.3 OD | 1.3 | 3.7 OD
9 | VGHLLSRCAHHSPGMGASPYG (DGI-2-20F-PP-B11; listed as Escherichia coli) | 1.0 OD | 2.6 OD | 2.7 | 40.8 OD
10 | SSVWATWGSDLRTFGSVGFL (DGI-2-20F-PP-C7; listed as Escherichia coli) | 1.1 OD | 3.0 OD | 2.6 | 11.0 OD
11 | VWAAWVEGSLLSPRQEPVRD (DGI-2-20R-4-G4; listed as Escherichia coli) | 1.0 OD | 10.2 OD | 9.8 | 13.6 OD
12 | WRARSSGYLFALTPNFGVPHIPSSALRRMH.GLMARDLRPV [DGI-2-40F-3-C10] | 0.9 OD | 1.1 OD | 1.3 | 7.7 OD
13 | YDQVWNSLLAAVLGGQELVN (DGI-2-20F-3-D112; listed as Escherichia coli) | 1.0 OD | 1.4 OD | 1.4 | 19.9 OD
14 | QLDCLVWGLPGLRCDRPLEQ (DGI-2-20R-3-B10; listed as Escherichia coli) | 1.0 OD | 7.8 OD | 7.6 | 17.0 OD
15 | VVGYAQGDGLEGGLGSSRDGS (DGI-2-20F-PP-D8; listed as Escherichia coli) | 1.1 OD | 2.3 OD | 2.2 | 2.6 OD
16 | EGQRVVFLFGALVAGLCWRDR (DGI-2-20F-PP-F3; listed as Escherichia coli) | 1.1 OD | 2.6 OD | 2.2 | 18.7 OD
17 | LHRLGQSMGGTLDHLQGWGV (DGI-2-20R-4-E5; listed as Escherichia coli) | 1.1 OD | 1.2 OD | 1.1 | 17.9 OD
18 | RISVGQCGTSRCGGGRRGGG (DGI-2-20F-PP-D1; listed as Escherichia coli) | 1.1 OD | 2.0 OD | 1.9 | 3.0 OD
19 | LHFGSVMGWRPPGSLWSRPFGQVHPRSWSGS (DGI-2-40F-3-D11; listed as Escherichia coli) | 1.3 OD | 3.8 OD | 2.9 | 10.5 OD
20 | PAMGHCMQVLGPVLEGRSRDQVGR (DGI-2-20R-4-G6; listed as Escherichia coli) | 1.1 OD | 1.6 OD | 1.4 | 11.5 OD
21 | KVWGCGARRGWERLGHLNQV (DGI-2-20F-PP-B10; listed as Escherichia coli) | 0.8 OD | 1.9 OD | 2.4 | 27.1 OD
22 | VHSQGRMWAIPGLRGGTGAS (DGI-2-20R-3-D7; listed as Escherichia coli) | 1.0 OD | 5.2 OD | 5.3 | 18.7 OD
23 | GNKCFPPHDLFWDPCDQLQS (DGI-2-20R-4-F6; listed as Escherichia coli) | 1.0 OD | 2.3 OD | 2.3 | 13.2 OD
24 | VTGTRFRGFAVACVRMGTWH (DGI-2-20F-PP-F2; listed as Escherichia coli) | 1.0 OD | 2.4 OD | 2.5 | 1.9 OD
25 | MSSTAWTDRILQRGIGLGPV (DGI-2-20R-4-F1212; listed as Escherichia coli) | 1.2 OD | 4.0 OD | 3.3 | 9.8 OD
26 | LLLPVRWRDAQPRSLLMEWI (DGI-2-20F-PP-F8; listed as Escherichia coli) | 1.1 OD | 2.0 OD | 1.9 | 7.6 OD
27 | DGRGWGAMWMRWAEGLGADI (DGI-2-20R-4-G114; listed as Escherichia coli) | 1.2 OD | 12.9 OD | 11.0 | 16.5 OD

Now from value to substance, other results behind:

Row | LDH (OD) [1] | DGI-2 (OD) (DGI-2) | DGI-2/LDH (OD) (DGI-2) | Substance | ETAG (OD) (E-tag antibody)
28 | 1.0 OD | 7.0 OD | 7.0 | VLGADAGMIWFMDGCGIRCR (DGI-2-20R-4-E6; listed as Escherichia coli) | 19.1 OD
29 | 1.0 OD | 2.4 OD | 2.5 | GLRACDTYLGFCVGARRIDD (DGI-2-20F-3-B102; listed as Escherichia coli) | 18.0 OD
30 | 1.0 OD | 9.6 OD | 9.4 | WWREWVDGSLRGGGGTVLKD (DGI-2-20R-3-A122; listed as Escherichia coli) | 15.1 OD
31 | 1.1 OD | 7.6 OD | 7.1 | RDTMCGSVSWGIPGCEYSGM (DGI-2-20R-4-G122; listed as Escherichia coli) | 13.9 OD
32 | 1.0 OD | 5.8 OD | 5.9 | GGGRESWGGGWFMGWGSGAG (DGI-2-20R-3-A6; listed as Escherichia coli) | 17.7 OD
33 | 1.0 OD | 4.7 OD | 4.7 | RPVVCLAGLTLAQFGWVFPGWRGWS (DGI-2-20C-3-C1039; listed as Escherichia coli) | 11.8 OD
34 | 0.8 OD | 1.2 OD | 1.5 | HPWVTNMLVFQRPPPPGFWLSDTTPRQRNGLGQVERPSVD (DGI-2-40F-3-C7; listed as Escherichia coli) | 8.8 OD
35 | 1.2 OD | 2.4 OD | 2.0 | GASRVVDVGWRFWGKLWQRS (DGI-2-20F-PP-G5; listed as Escherichia coli) | 27.7 OD
36 | 1.3 OD | 3.5 OD | 2.8 | VVHTRAWGSWAYGFVLRNRG (DGI-2-20F-PP-F10; listed as Escherichia coli) | 42.5 OD
37 | 0.8 OD | 2.1 OD | 2.6 | RFWSVSYQGGRVMCREWGYCLPI (DGI-2-40F-3-C92; listed as Escherichia coli) | 9.8 OD
38 | 1.2 OD | 2.8 OD | 2.4 | SLFERSARSRYHGSPDCNGS (DGI-2-20F-PP-A3; listed as Escherichia coli) | 12.9 OD
39 | 0.9 OD | 1.2 OD | 1.2 | LSRIWRGVIESAREVESRGI (DGI-2-20F-3-B1; listed as Escherichia coli) | 11.4 OD
